Results on two substances are retold here after patent publication US20170196927A1, “COMPOSITION FOR ARTHRITIS, MOBILITY AND DELAY AGEING” (Mars, Incorporated, priority 2014, published 2017).

One data set concerns cyclooxgenase-2 (COX-2). In words: RNA expression of COX-2 (RT-PCR) in IL-1β stimulated RAC. It counts as cell-based, Rabbit. The following applies: for Effect on COX2 expression (in words): IL-1β stimulated RAC; for COX2 Expression: relative RNA expression (untreated = 1.0), GAPDH reference, 24 h pre-treatment, IL-1β 10 ng/ml 48 h, green tea extract 50 μM, collagen 0.5 mg/ml, chondroitin 200 μg/ml. The method, then:
(§1) An in vitro study was run to evaluate the efficacy of a composition containing chondroitin, hydrolysed collagen and green tea extract on Rabbit Articular Chondrocytes (RAC). RAC were cultured in DMEM supplemented with 10% Fetal Calf Serum, glutamine and 1% penicillin/streptomycin (Gibco, Life Technologies AG, Switzerland) at 37° C. in an incubator with an atmosphere of 5% CO2.
(§2) RAC were plated in 6 well plates (3×10^5 cells/cm2). The medium was replaced with fresh medium containing each compound chondroitin, hydrolysed collagen and green tea extract or a mixture of all three compounds for 24 hours prior to stimulation with IL-1β (10 ng/ml) (Merck Millipore, USA). RAC were then incubated for 48, hours after which RNA expression of cyclooxgenase-2 (COX-2), inducible isoform Nitric oxide Synthase (iNoS) and Matrix Metallopeptidase-13 (MMP13) was measured as markers of arthritis.
(§3) NO and PGE2 production was measured using Cayman Chemicals (Bertin Pharma, France) following the manufacturer's protocol. NO production was estimated spectrophotometrically by measuring the accumulation of nitrites in the culture supernatants by Griess reaction using a standard curve prepared with sodium nitrite. PGE2 was estimated using a highly sensitive and specific Enzyme Immunoassay Kit. RNA extraction was performed by extracting RNA using the NucleoSpin™ RNA II Kit (Macherey-Nagel, Hoerdt, France) as per manufacturer's instructions. RNA was reverse-transcribed with SupersScript III (Life Technologies) and real-time polymerase chain reaction (RT-PCR) was performed with SYBR Select mix (Life Technologies). Primer sequences COX-2, iNoS and MMP13 was used to quantify the relative RNA expression. Primer sequence for GAPDH was used as the reference gene.

The subject of data set [1] is inducible isoform Nitric oxide Synthase (iNoS). In words: RNA expression of iNoS (RT-PCR) in IL-1β stimulated RAC. In kind it is cell-based, Rabbit. The settings on record: for Effect on iNos expression (in words): IL-1β stimulated RAC; for iNoS Expression: relative RNA expression (untreated = 1.0), GAPDH reference, 24 h pre-treatment, IL-1β 10 ng/ml 48 h, green tea extract 50 μM, collagen 0.5 mg/ml, chondroitin 200 μg/ml. The method, then: as §1, §2, §3

The subject of data set [2] is Matrix Metallopeptidase-13 (MMP13). The data set can be described thus: RNA expression of MMP13 (RT-PCR) in IL-1β stimulated RAC. It counts as cell-based, Rabbit. Here is the method: as §1, §2
NO and PGE2 production was measured using Cayman Chemicals (Bertin Pharma, France) following the manufacturer's protocol. NO production was estimated spectrophotometrically by measuring the accumulation of nitrites in the culture supernatants by Griess reaction using a standard curve prepared with sodium nitrite. PGE2 was estimated using a highly sensitive and specific Enzyme Immunoassay Kit. […] Primer sequences COX-2, iNoS and MMP13 was used to quantify the relative RNA expression. […]

Data set [3] relates to Rabbit Articular Chondrocytes (RAC). In words: Cellular viability of RAC (MTS assay and trypan blue exclusion). It counts as cell-based. The method, then:
as §1
Cellular viability was measured using an MTS assay (Cell Titer 96™ MTS, Promega, France) as per manufacturer's instructions. Cells were also counted using a Malassez cell and cellular viability was assessed using trypan blue exclusion dye technique, which colours dead cells in blue.
Rabbit Articular Chondrocytes (RAC) were incubated with the different compounds separately or blended together to evaluate their cytotoxicity.

Where two headings read alike, the source gives them in different places.

On to Chondroitin, for which, in the data set on cyclooxgenase-2 (COX-2), the “Effect on COX2 expression (in words)” value is “seems to have no effect” and the “COX2 Expression” value amounted to 10.7. Moreover, in data set [1], the “Effect on iNos expression (in words)” value was “seems to have no effect” and the “iNoS Expression” value amounted to 5.3. Besides, in data set [2], the “Effect on MMP13 expression (in words)” value is given as “seems to have no effect”. Further, in data set [3] (24 and 48 hours of incubation, large range of concentration (data not shown)), the “Cellular toxicity (MTS measurements and Trypan blue exclusion)” value is on record as “did not reveal any cellular toxicity”.

Regarding Collagen, in the data set on cyclooxgenase-2 (COX-2), the “Effect on COX2 expression (in words)” value is listed as “decreases the expression” and the “COX2 Expression” value stood at 7.1. Moreover, in data set [1], the “Effect on iNos expression (in words)” value is reported as “decreases the expression” and the “iNoS Expression” value is reported as 3.9. For the same substance, the “Effect on MMP13 expression (in words)” value in data set [2] is “decreases the expression”. Further, in data set [3], the “Cellular toxicity (MTS measurements and Trypan blue exclusion)” value was “did not reveal any cellular toxicity”.
